The text below walks through data of US20250326769A1, “HETEROAROMATIC MACROCYCLIC ETHER CHEMOTHERAPEUTIC AGENTS” (Nuvalent, Inc., priority 2022, published 2025).

Holding throughout (type): cell-based
One test deals with Ba/F3 EML4-ALK v1 I1171N (Homo sapiens (Human), UniProt Q9HC35+Q9UM73, I1171N). The test can be described thus: Ba/F3 cell proliferation assay, EML4-ALK v1 I1171N. Particulars: for IC50: Ba/F3 stable cells, 72 hours, CellTiter-Glo; for ETV6-TRKB / EML4-ALK v1 I1171N: TRKB selectivity, ratio of Ba/F3 IC50 values. The source says: (§1) Genes encoding EML4-ALK v1 (variant 1), EML4-ALK v1 G1202R, EML4-ALK v1 I1171IN, EML4-ALK v1 D1203N, EML4-ALK v1 I1171N/D1203N, and ETV6-TRKB were synthesized at GeneRay, cloned into the retroviral construct pMSCV-puro (Biovector), and packaged into retroviral particles. The virus was used to infect Ba/F3 cells (RIKEN) at multiplicity of infection=1 for 1 day. Infected cells were rescued in media (RPMI-1640 with 10% fetal bovine serum and 1% streptomycin and penicillin) supplemented with mouse IL-3 (10 ng/mL) for 2 days, and stable cell lines were selected by IL-3 withdrawal and puromycin (0.8 μg/mL) for 7 days. Monoclones were selected by single-cell dilution in IL-3-free medium containing puromycin (0.8 μg/mL). Transformation of desired genes was confirmed by Sanger sequencing and western blot using the following antibodies: ALK (CST #3633) and pan-TRK (Abcam #76291).
Sequence of Ba/F3 EML4-ALK v1 I1171N (Q9UM73 other isoform, or with tags, fused parts or gaps I1171N): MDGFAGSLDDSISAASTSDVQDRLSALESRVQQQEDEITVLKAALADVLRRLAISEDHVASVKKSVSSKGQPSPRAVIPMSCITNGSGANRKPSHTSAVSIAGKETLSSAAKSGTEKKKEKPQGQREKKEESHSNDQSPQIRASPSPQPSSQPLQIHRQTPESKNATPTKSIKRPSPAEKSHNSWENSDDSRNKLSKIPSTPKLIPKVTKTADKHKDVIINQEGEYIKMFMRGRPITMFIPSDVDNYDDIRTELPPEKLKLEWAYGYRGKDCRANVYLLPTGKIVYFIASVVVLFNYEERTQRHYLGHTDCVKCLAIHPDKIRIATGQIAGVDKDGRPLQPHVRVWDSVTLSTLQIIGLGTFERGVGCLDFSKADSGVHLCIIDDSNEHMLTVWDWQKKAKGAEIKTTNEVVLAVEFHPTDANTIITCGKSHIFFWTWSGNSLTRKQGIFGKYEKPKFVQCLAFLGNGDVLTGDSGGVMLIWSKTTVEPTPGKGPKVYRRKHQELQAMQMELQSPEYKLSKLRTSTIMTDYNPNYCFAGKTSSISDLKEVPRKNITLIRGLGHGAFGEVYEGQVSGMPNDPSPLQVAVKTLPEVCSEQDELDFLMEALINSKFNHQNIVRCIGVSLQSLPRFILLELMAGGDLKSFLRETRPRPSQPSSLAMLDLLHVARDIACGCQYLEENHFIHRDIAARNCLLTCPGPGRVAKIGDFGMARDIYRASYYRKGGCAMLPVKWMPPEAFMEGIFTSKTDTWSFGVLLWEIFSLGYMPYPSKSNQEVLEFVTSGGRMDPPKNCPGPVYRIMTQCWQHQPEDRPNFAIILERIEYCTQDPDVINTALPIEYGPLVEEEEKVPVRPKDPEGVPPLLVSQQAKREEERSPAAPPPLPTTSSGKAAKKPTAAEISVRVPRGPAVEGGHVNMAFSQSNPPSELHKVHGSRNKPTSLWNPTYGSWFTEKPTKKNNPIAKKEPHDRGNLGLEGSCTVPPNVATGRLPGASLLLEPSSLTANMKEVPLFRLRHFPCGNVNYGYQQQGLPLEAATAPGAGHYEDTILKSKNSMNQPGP
(§2) Stable cells were plated in a 384-well plate. Test compounds were then added in a 3-fold dilution series and incubated for 72 hours. CellTiter-Glo reagent (Promega) was added. Luminescence was measured on a plate reader. Half-maximal inhibitory concentration (ICso) was calculated from percent inhibition and inhibitor concentration using four-parameter logistic regression. Compound potency can be interpreted by binning IC50 values: bin A for high potency, 0.1 nM IC50<50 nM; bin B for medium potency, 50 nM<IC50<500 nM; and bin C for low potency, IC50>500 nM. […] Exemplary data is given in Table 4 (nd is not determined).
(§3) Ba/F3 proliferation is driven by the transduced oncogenes in the same way that cancer cell proliferation in humans is driven by the expression of equivalent oncogenes.
(§4) TRKB selectivity was calculated by dividing a compound's TRKB potency by its primary target potency (e.g., ETV6-TRKB IC50/EML4-ALK v1 IC50). Compound selectivity can be interpreted by binning ratio values: bin A for very high selectivity, ratio≥30-fold; bin B for high selectivity, ratio≥10-fold but<30; bin C for moderate selectivity, ratio≥1 but<10; and bin D for low selectivity, ratio<1. […] (nd=not determined).
(In general: In ATP-based viability assays light output follows the ATP content of the culture.)

Test [1] has as its target Ba/F3 EML4-ALK v1 I1171N/D1203N (Homo sapiens (Human), UniProt Q9HC35+Q9UM73, D1203N/I1171N). The test can be described thus: Ba/F3 cell proliferation assay, EML4-ALK v1 I1171N/D1203N. The settings on record: for IC50: Ba/F3 stable cells, 72 hours, CellTiter-Glo; for ETV6-TRKB / EML4-ALK v1 I1171N/D1203N / Selectivity for Ba/F3 EML4-ALK v1 I1171N-D1203N IC50 over Ba/F3 ETV6-TRKB IC50: TRKB selectivity, ratio of Ba/F3 IC50 values; for Selectivity for Ba/F3 EML4-ALK v1 I1171N-D1203N IC50 over Ba/F3 ETV6-TRKB IC50: Table 6 bins.
Excerpt: as §1, §2, §3, §4
Additional exemplified compounds were also tested against ALK-INDN and TRKB. The TRKB selectivity was calculated by dividing a compound's TRKB potency by its primary target potency (e.g., ETV6-TRKB IC50/EMIL4-ALK I1171N-D1203N v1 IC50). Compound selectivity can be interpreted by binning ratio values: bin AA for the selectivity with the ratio≥30-fold; bin BB for the selectivity with the ratio≥10-fold but<30; bin CC for the selectivity with the ratio≥5 but<10; bin DD for the selectivity with the ratio≥1 but<5; and bin EE for the selectivity with the ratio<1.

Another test has as its target Ba/F3 ETV6-TRKB (Homo sapiens, UniProt Q16620). The test can be described thus: Ba/F3 cell proliferation assay, ETV6-TRKB. Particulars: Ba/F3 stable cells, 72 hours, CellTiter-Glo; read-out: ETV6-TRKB IC50.
Excerpt: as §1, §2, §3

The IC50 is the concentration needed to halve the response being measured.

Sequence of Ba/F3 ETV6-TRKB (Q16620 32-822 limits assumed, change not shown): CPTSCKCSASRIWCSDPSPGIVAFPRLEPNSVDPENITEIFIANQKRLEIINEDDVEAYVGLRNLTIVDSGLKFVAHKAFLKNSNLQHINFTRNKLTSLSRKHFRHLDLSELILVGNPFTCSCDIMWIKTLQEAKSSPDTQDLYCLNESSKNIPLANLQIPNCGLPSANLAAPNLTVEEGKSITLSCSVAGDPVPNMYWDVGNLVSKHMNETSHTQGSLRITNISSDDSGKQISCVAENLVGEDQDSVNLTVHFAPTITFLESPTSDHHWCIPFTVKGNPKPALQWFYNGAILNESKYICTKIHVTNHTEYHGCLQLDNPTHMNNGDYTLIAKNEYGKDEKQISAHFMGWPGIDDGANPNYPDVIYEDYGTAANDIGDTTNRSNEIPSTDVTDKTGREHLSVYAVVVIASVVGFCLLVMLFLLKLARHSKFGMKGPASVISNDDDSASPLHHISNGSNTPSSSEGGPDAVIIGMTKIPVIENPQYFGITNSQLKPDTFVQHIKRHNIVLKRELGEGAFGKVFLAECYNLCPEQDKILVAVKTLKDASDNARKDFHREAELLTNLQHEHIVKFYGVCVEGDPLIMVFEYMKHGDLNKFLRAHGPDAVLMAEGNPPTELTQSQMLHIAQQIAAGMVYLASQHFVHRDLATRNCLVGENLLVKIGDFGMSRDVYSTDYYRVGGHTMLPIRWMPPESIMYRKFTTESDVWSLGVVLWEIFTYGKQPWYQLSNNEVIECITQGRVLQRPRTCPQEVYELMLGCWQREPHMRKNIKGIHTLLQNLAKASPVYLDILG
Sequence of Ba/F3 EML4-ALK v1 I1171N/D1203N (Q9UM73 other isoform, or with tags, fused parts or gaps I1171N/D1203N): as the sequence (Q9UM73 other isoform, or with tags, fused parts or gaps I1171N) above, with D642N counted along it

Take `C[C@H]1Oc2cc(cnc2N)-c2c(C#N)nn(C(=O)N(C)C)c2Cc2cccnc2-c2c(F)cc(F)cc21` [Example 71, N,N-dimethyl-(R)-23-amino-3-cyano-15,17-difluoro-20-methyl-21-oxa-4,5,12,24-tetraazapentacyclo[20.3.1.0^2,^6.0^8,^13.0^14,^19]hexacosa-1(25),2(6),3,8(13),9,11,14,16,18,22(26),23-undecaene-5-carboxamide]: on Ba/F3 EML4-ALK v1 I1171N, the IC50 fell in the range of 50 to 500 nM and the “ETV6-TRKB / EML4-ALK v1 I1171N” value is “B (bin B for high selectivity, ratio≥10-fold but<30)”. Also, in test [1], the IC50 was in the range of 50 to 500 nM and the “ETV6-TRKB / EML4-ALK v1 I1171N/D1203N” value is on record as “B (bin B for high selectivity, ratio≥10-fold but<30)”. Further, the IC50 on Ba/F3 ETV6-TRKB is greater than 500 nM.

Turning to `CCc1c2c(nn1C)C(=O)c1cccnc1-c1ccc(F)cc1[C@@H](C)Oc1cc-2cnc1N` [Example 54, (R)-23-amino-3-ethyl-17-fluoro-4-methyl-20-methyl-21-oxa-4,5,12,24-tetraazapentacyclo[20.3.1.0^2,^6.0^8,^13.0^14,^19]hexacosa-1(25),2,5,8,10,12,14,16,18,22(26),23-undecaen-7-one], at Ba/F3 EML4-ALK v1 I1171N, the IC50 lay in the range of 0.1 to 50 nM and the “ETV6-TRKB / EML4-ALK v1 I1171N” value is given as “C (bin C for moderate selectivity, ratio≥1 but<10)”. Further, in test [1], the IC50 lay within 0.1 to 50 nM and the “ETV6-TRKB / EML4-ALK v1 I1171N/D1203N” value is reported as “B (bin B for high selectivity, ratio≥10-fold but<30)”. In addition, the IC50 at Ba/F3 ETV6-TRKB was 0.1 to 50 nM.

Take `C[C@H]1Oc2cc(cnc2N)-c2c(c(C#N)nn2CC2CC2)Cc2cn(C)nc2-c2ccc(F)cc21` [Example 1, (19R)-22-amino-3-(cyclopropylmethyl)-16-fluoro-10,19-dimethyl-20-oxa-3,4,10,11,23-pentaazapentacyclo[19.3.1.0^2,6.0^8,12.0^13,18]pentacosa-1(24),2(6),4,8,11,13,15,17,21(25),22-decaene-5-carbonitrile]: on Ba/F3 EML4-ALK v1 I1171N, the IC50 fell in the range of 50 to 500 nM and the “ETV6-TRKB / EML4-ALK v1 I1171N” value was “B (bin B for high selectivity, ratio≥10-fold but<30)”. Further, in test [1], the IC50 was greater than 500 nM and the “ETV6-TRKB / EML4-ALK v1 I1171N/D1203N” value was “C (bin C for moderate selectivity, ratio≥1 but<10)”. Further, at Ba/F3 ETV6-TRKB, the IC50 is greater than 500 nM.

`CCn1nc2c(c1C#N)-c1cnc(N)c(c1)O[C@H](C)c1cc(F)ccc1-c1ncccc1C2=O` [Example 50, (R)-23-amino-4-ethyl-17-fluoro-20-methyl-7-oxo-21-oxa-4,5,12,24-tetraazapentacyclo[20.3.1.0^2,^6.0^8,^13.0^14,^19]hexacosa-1(25),2,5,8,10,12,14,16,18,22(26),23-undecaene-3-carbonitrile]: at Ba/F3 EML4-ALK v1 I1171N, the concentration for half-maximal inhibition (IC50) was in the range of 0.1 to 50 nM and the “ETV6-TRKB / EML4-ALK v1 I1171N” value is “A (bin A for very high selectivity, ratio≥30-fold)”. In addition, in test [1], the IC50 is 0.1 to 50 nM; the “ETV6-TRKB / EML4-ALK v1 I1171N/D1203N” value is listed as “A (bin A for very high selectivity, ratio≥30-fold)”; the “Selectivity for Ba/F3 EML4-ALK v1 I1171N-D1203N IC50 over Ba/F3 ETV6-TRKB IC50” value is “AA (bin AA for the selectivity with the ratio≥30-fold)”. At Ba/F3 ETV6-TRKB, the IC50 was 50 to 500 nM.

In the case of “(R)-22-amino-14,16-difluoro-4-methyl-10,19-dimethyl-7-oxo-20-oxa-9-thia-4,5,11,23-tetraazapentacyclo[19.3.1.0^2,6.0^8,12.0^13,18]pentacosa-1(24),2,5,8(12),10,13,15,17,21(25),22-decaene-3-carbonitrile [Example 80]”, in test [1], the IC50 was 0.1 to 50 nM and the “ETV6-TRKB / EML4-ALK v1 I1171N/D1203N” value is “B (bin B for high selectivity, ratio≥10-fold but<30)”. In addition, the IC50 at Ba/F3 ETV6-TRKB lay within 50 to 500 nM.

`Cc1cc2n(n1)-c1c(F)cc(F)cc1[C@@H](C)Oc1cc(cnc1N)-c1c(nn(C)c1C#N)C2=O` [Example 68, (R)-22-amino-14,16-difluoro-4-methyl-10,19-dimethyl-7-oxo-20-oxa-4,5,11,12,23-pentaazapentacyclo[19.3.1.0^2,^6.0^8,^12.0^13,^18]pentacosa-1(24),2,5,8,10,13,15,17,21(25),22-decaene-3-carbonitrile]: the IC50 in test [1] is 50 to 500 nM; on Ba/F3 ETV6-TRKB, greater than 500 nM.

`C[C@H]1Oc2cc(cnc2N)-c2c(nn(C)c2C#N)Oc2cccnc2-c2c(F)cc(F)cc21` [Example 61, (R)-23-amino-15,17-difluoro-4-methyl-20-methyl-7,21-dioxa-4,5,12,24-tetraazapentacyclo[20.3.1.0^2,^6.0^8,^13.0^14,^19]hexacosa-1(25),2,5,8(13),9,11,14,16,18,22(26),23-undecaene-3-carbonitrile]: the IC50 in test [1] was 0.1 to 50 nM; at Ba/F3 ETV6-TRKB, 50 to 500 nM.

On to `C[C@H]1Oc2cc(cnc2N)-c2c(C#N)nn(C)c2C(=O)c2cn(C)nc2-c2c(F)cc(F)cc21` [Example 28, (R)-22-amino-14,16-difluoro-5,10-dimethyl-19-methyl-7-oxo-20-oxa-4,5,10,11,23-pentaazapentacyclo[19.3.1.0^2,^6.0^8,^12.0^13,^18]pentacosa-1(24),2(6),3,8,11,13,15,17,21(25),22-decaene-3-carbonitrile], for which, in test [1], the half-maximal inhibitory concentration (IC50) lay within 50 to 500 nM and the “ETV6-TRKB / EML4-ALK v1 I1171N/D1203N” value is “A (bin A for very high selectivity, ratio≥30-fold)”. On Ba/F3 ETV6-TRKB, the half-maximal inhibitory concentration (IC50) is greater than 500 nM.

As to `C[C@H]1Oc2cc(cnc2N)-c2c(C#N)nn(C)c2C(=O)c2cccnc2-c2c(F)cc(F)cc21` [Example 22, (R)-23-amino-15,17-difluoro-5-methyl-20-methyl-7-oxo-21-oxa-4,5,12,24-tetraazapentacyclo[20.3.1.0^2,^6.0^8,^13.0^14,^19]hexacosa-1(25),2(6),3,8,10,12,14,16,18,22(26),23-undecaene-3-carbonitrile], in test [1], the IC50 fell in the range of 0.1 to 50 nM; the “ETV6-TRKB / EML4-ALK v1 I1171N/D1203N” value was “A (bin A for very high selectivity, ratio≥30-fold)”; the “Selectivity for Ba/F3 EML4-ALK v1 I1171N-D1203N IC50 over Ba/F3 ETV6-TRKB IC50” value is given as “AA (bin AA for the selectivity with the ratio≥30-fold)”. Also, the IC50 on Ba/F3 ETV6-TRKB was greater than 500 nM.

On to `C[C@H]1Oc2nc(cnc2N)-c2c(nn(C)c2C#N)C(=O)c2cccnc2-c2ccc(F)cc21` [Example 75, (R)-23-amino-17-fluoro-4-methyl-20-methyl-7-oxo-21-oxa-4,5,12,24,26-pentaazapentacyclo[20.3.1.0^2,^6.0^8,^13.0^14,^19]hexacosa-1(25),2,5,8(13),9,11,14,16,18,22(26),23-undecaene-3-carbonitrile], for which the half-maximal inhibitory concentration (IC50) (in test [1]; on Ba/F3 ETV6-TRKB) was 0.1 to 50 nM each time. Also, the “ETV6-TRKB / EML4-ALK v1 I1171N/D1203N” value in test [1] is “A (bin A for very high selectivity, ratio≥30-fold)”.

In the case of `CC1Oc2cc(cnc2N)-c2c(c(C#N)nn2CC2CC2)Cc2cn(C)nc2-c2c(F)cc(F)cc21` (stereo not shown) [Example 70, 22-amino-3-(cyclopropylmethyl)-14,16-difluoro-10,19-dimethyl-20-oxa-3,4,10,11,23-pentaazapentacyclo[19.3.1.0^2,^6.0^8,^12.0^13,^18]pentacosa-1(24),2(6),4,8,11,13,15,17,21(25),22-decaene-5-carbonitrile], in test [1], the 50% inhibitory concentration (IC50) is greater than 500 nM and the “ETV6-TRKB / EML4-ALK v1 I1171N/D1203N” value is “C (bin C for moderate selectivity, ratio≥1 but<10)”. Besides, the IC50 on Ba/F3 ETV6-TRKB was greater than 500 nM.

In the case of `C[C@H]1Oc2cc(cnc2N)-c2c(nn(C)c2C#N)Oc2cccnc2-c2ccc(F)cc21` [Example 59, (R)-23-amino-17-fluoro-4-methyl-20-methyl-7,21-dioxa-4,5,12,24-tetraazapentacyclo[20.3.1.0^2,^6.0^8,^13.0^14,^19]hexacosa-1(25),2,5,8(13),9,11,14,16,18,22(26),23-undecaene-3-carbonitrile], in test [1], the IC50 was 0.1 to 50 nM and the “ETV6-TRKB / EML4-ALK v1 I1171N/D1203N” value is recorded as “B (bin B for high selectivity, ratio≥10-fold but<30)”. Moreover, the IC50 at Ba/F3 ETV6-TRKB lay within 50 to 500 nM.

Turning to `CC(C)N(C)C(=O)c1nn(CC2CC2)c2c1Cc1cn(C)nc1-c1ccc(F)cc1[C@@H](C)Oc1cc-2cnc1N` [Example 37, N-isopropyl-N-methyl-(R)-22-amino-3-(cyclopropylmethyl)-16-fluoro-10-methyl-19-methyl-20-oxa-3,4,10,11,23-pentaazapentacyclo[19.3.1.0^2,^6.0^8,^12.0^13,^18]pentacosa-1(24),2(6),4,8,11,13,15,17,21(25),22-decaene-5-carboxamide], the half-inhibitory concentration (IC50) in test [1] is 50 to 500 nM; on Ba/F3 ETV6-TRKB it was greater than 500 nM.
